From US7727960B2, “C5a receptor antagonists” (Jerini AG, priority 2003, dated 2010)
Values belong to the molecule of their own block, whether it stands above or below them. Positions of bridges follow the written chain, without caps; N, C: chain ends. Non-standard residues stand in square brackets, D forms with d. Residues, ends and D or L forms follow the SMILES beside them. No end group written: not given here. *: point of attachment. Phe(4-guanidino) = N=C(N)Nc1ccc(C[C@H](N)C(=O)O)cc1; X3 = O=C1CNC(=O)N1[C@@H](Cc1ccccc1)C(=O)*; X4 = O=C1CCC(=O)N1[C@@H](Cc1ccccc1)C(=O)*; Phe(4-NH2) = Nc1ccc(C[C@H](N)C(=O)O)cc1; Phe(4-Me) = Cc1ccc(C[C@H](N)C(=O)O)cc1; 2Nal = N[C@@H](Cc1ccc2ccccc2c1)C(=O)O; His(τ-Me) = Cn1cnc(C[C@H](N)C(=O)O)c1; Acetyl(4-pyridyl) = O=C(Cc1ccncc1)*; Bta = N[C@@H](Cc1csc2ccccc12)C(=O)O; d(hLeu) = CC(C)CC[C@@H](N)C(=O)O; 2Thi = N[C@@H](Cc1cccs1)C(=O)O; Cha = N[C@@H](CC1CCCCC1)C(=O)O; dCha = N[C@H](CC1CCCCC1)C(=O)O; Chg = N[C@H](C(=O)O)C1CCCCC1; hLeu = CC(C)CC[C@H](N)C(=O)O; dNle = CCCC[C@@H](N)C(=O)O; Nle = CCCC[C@H](N)C(=O)O; Orn = NCCC[C@H](N)C(=O)O; Pra = C#CC[C@H](N)C(=O)O; Nva = CCC[C@H](N)C(=O)O

Columns and labels:
[1] = biological target: T1, human C5aR (CD88) (Homo sapiens, UniProt P21730); assay: Determination of the IC50 value in an enzyme release assay (functional assay, antagonistic activity); format: cell-based; settings: for inhibitory activity (in words): noteworthy = IC50 of less than 200 nM in the functional assay; for IC50-value compared to compound 40 (in words): arginine replaced by hydrophobic substitutions; for IC50: antagonistic activity, enzyme release assay in RBL cells expressing human C5aR (CD88), read-out: activity (group)
T1 construct: expressed in transfected cells; host or cells: rat basophilic leukemia cells (RBL)
T1 sequence (P21730 1-350): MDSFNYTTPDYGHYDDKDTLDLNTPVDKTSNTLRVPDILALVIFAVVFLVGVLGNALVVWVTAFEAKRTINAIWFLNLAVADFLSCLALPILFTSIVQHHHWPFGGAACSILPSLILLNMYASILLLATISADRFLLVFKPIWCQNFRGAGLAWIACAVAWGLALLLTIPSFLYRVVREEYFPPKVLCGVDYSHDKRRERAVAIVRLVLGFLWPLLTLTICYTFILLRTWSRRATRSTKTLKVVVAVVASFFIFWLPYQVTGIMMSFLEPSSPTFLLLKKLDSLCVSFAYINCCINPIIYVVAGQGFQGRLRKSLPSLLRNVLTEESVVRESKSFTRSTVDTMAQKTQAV

[2] = biological target: T2, human C5aR (CD88) (human, UniProt P21730 1-350); assay: cell-based or functional assay
T2 sequence (looked up): T1 sequence (P21730 1-350)

IC50 activity group, enzyme release assay [2]: ≤ 200 nM
Molecule: Ac-F[Orn]P[dCha]W[dNle] (lactam 2-C (inferred)) [Ac-Phe-[Orn-Pro-cha-Trp-nle]]

IC50 activity group, enzyme release assay [2]: ≤ 50 nM
Molecule: {Ph‑CH2}-[Orn]P[dCha]WF (lactam 1-C) [Ph-CH2-[Orn-Pro-cha-Trp-Phe]]

IC50 activity group, enzyme release assay [2]: ≤ 200 nM
Molecule: {Acetyl(4-pyridyl)}-F[Orn]P[dCha]W[Nle] (lactam 2-C (inferred)) [Fbi-Phe-[Orn-Pro-cha-Trp-Nle]]

IC50 activity group, enzyme release assay [2]: ≤ 200 nM
B2: Ac-Phe-[Orn-Pro-cha-Trp-Leu] (peptide)
peptide: Ac-F[Orn]P[dCha]WL
modifications: lactam (positions not given here); not fully specified (bridges); printed as Ac-Phe-[Orn-Pro-cha-Trp-Leu]

IC50 activity group, enzyme release assay [2]: ≤ 2000 nM
Molecule: FXPXWX (not fully specified; Ac-; Orn2; cha4 (D); Har6; cyclic [2-6]) [Ac-Phe-[Orn-Pro-cha-Trp-Har]]

IC50 activity group, enzyme release assay [2]: ≤ 50 nM
Molecule: Ac-F[Orn]P[d(hLeu)]W[Nle] (lactam 2-C (inferred)) [Ac-Phe-[Orn-Pro-hle-Trp-Nle]]

IC50 activity group, enzyme release assay [2]: ≤ 50 nM
Molecule: {Ph‑CH2}-[Orn]P[dCha]W[Nle] (lactam 1-C) [Ph-CH2-[Orn-Pro-cha-Trp-Nle]]

IC50 activity group, enzyme release assay [2]: ≤ 50 nM
Molecule: {Ph‑CH(OH)‑CH2‑CO}-[Orn]P[dCha]W[Nle] (lactam 1-C) [Ph-CH(OH)-CH2-CO-[Orn-Pro-cha-Trp-Nle]]

IC50 activity group, enzyme release assay [2]: ≤ 50 nM
B4: Ac-Phe-[Orn-Pro-cha-Trp-Phe] (peptide)
peptide: Ac-F[Orn]P[dCha]WF
modifications: lactam (positions not given here); not fully specified (bridges); printed as Ac-Phe-[Orn-Pro-cha-Trp-Phe]

IC50 activity group, enzyme release assay [2]: ≤ 50 nM
B5: Ac-Phe-[Orn-Pro-cha-Trp-Tyr] (peptide)
peptide: Ac-F[Orn]P[dCha]WY
modifications: lactam (positions not given here); not fully specified (bridges); printed as Ac-Phe-[Orn-Pro-cha-Trp-Tyr]

Continued, molecule first:

Molecule: CC(=O)N[C@@H](Cc1ccccc1)C(=O)N[C@H]1CCCNC(=O)[C@H](Cc2ccc(N)cc2)NC(=O)[C@H](Cc2c[nH]c3ccccc23)NC(=O)[C@@H](CC2CCCCC2)NC(=O)[C@@H]2CCCN2C1=O [Compound 14, Ac-Phe-[Orn-Pro-cha-Trp-Paf]] (Ac-F[Orn]P[dCha]W[Phe(4-NH2)]; lactam 2-C)
inhibitory activity (in words) [1]: noteworthy inhibitory activity

Molecule: CC(=O)N[C@@H](Cc1ccccc1)C(=O)N[C@H]1CCCNC(=O)[C@H](Cc2cn(C)cn2)NC(=O)[C@H](Cc2c[nH]c3ccccc23)NC(=O)[C@@H](CC2CCCCC2)NC(=O)[C@@H]2CCCN2C1=O [Compound 20, Ac-Phe-[Orn-Pro-cha-Trp-Ecr]] (Ac-F[Orn]P[dCha]W[His(τ-Me)]; lactam 2-C)
inhibitory activity (in words) [1]: noteworthy inhibitory activity

Molecule: CSCC[C@@H]1NC(=O)[C@H](Cc2c[nH]c3ccccc23)NC(=O)[C@@H](CC2CCCCC2)NC(=O)[C@@H]2CCCN2C(=O)[C@@H](NC(=O)[C@H](Cc2ccccc2)NC(C)=O)CCCNC1=O [Compound 29, Ac-Phe-[Orn-Pro-cha-Trp-Met]] (Ac-F[Orn]P[dCha]WM; lactam 2-C)
IC50-value compared to compound 40 (in words) [1]: without a significant increase of the IC50-value
inhibitory activity (in words) [1]: noteworthy inhibitory activity

Molecule: CCC[C@@H]1NC(=O)[C@H](Cc2c[nH]c3ccccc23)NC(=O)[C@@H](CC2CCCCC2)NC(=O)[C@@H]2CCCN2C(=O)[C@@H](NC(=O)[C@H](Cc2ccccc2)NC(C)=O)CCCNC1=O [Compound 31, Ac-Phe-[Orn-Pro-cha-Trp-Nva]] (Ac-F[Orn]P[dCha]W[Nva]; lactam 2-C)
IC50-value compared to compound 40 (in words) [1]: without a significant increase of the IC50-value
inhibitory activity (in words) [1]: noteworthy inhibitory activity

Molecule: CC(=O)N[C@@H](Cc1ccccc1)C(=O)N[C@H]1CCCNC(=O)[C@H](CCC(C)C)NC(=O)[C@H](Cc2c[nH]c3ccccc23)NC(=O)[C@@H](CC2CCCCC2)NC(=O)[C@@H]2CCCN2C1=O [Compound 32, Ac-Phe-[Orn-Pro-cha-Trp-Hle]] (Ac-F[Orn]P[dCha]W[hLeu]; lactam 2-C)
IC50-value compared to compound 40 (in words) [1]: without a significant increase of the IC50-value
inhibitory activity (in words) [1]: noteworthy inhibitory activity

Molecule: CCSC[C@@H]1NC(=O)[C@H](Cc2c[nH]c3ccccc23)NC(=O)[C@@H](CC2CCCCC2)NC(=O)[C@@H]2CCCN2C(=O)[C@@H](NC(=O)[C@H](Cc2ccccc2)NC(C)=O)CCCNC1=O [Compound 34, Ac-Phe-[Orn-Pro-cha-Trp-Ebd]] (Ac-F[Orn]P[dCha]WC(Et); lactam 2-C)
IC50-value compared to compound 40 (in words) [1]: without a significant increase of the IC50-value
inhibitory activity (in words) [1]: noteworthy inhibitory activity

Molecule: C#CC[C@@H]1NC(=O)[C@H](Cc2c[nH]c3ccccc23)NC(=O)[C@@H](CC2CCCCC2)NC(=O)[C@@H]2CCCN2C(=O)[C@@H](NC(=O)[C@H](Cc2ccccc2)NC(C)=O)CCCNC1=O [Compound 35, Ac-Phe-[Orn-Pro-cha-Trp-Eag]] (Ac-F[Orn]P[dCha]W[Pra]; lactam 2-C)
IC50-value compared to compound 40 (in words) [1]: without a significant increase of the IC50-value
inhibitory activity (in words) [1]: noteworthy inhibitory activity

Molecule: CC(=O)N[C@@H](Cc1ccccc1)C(=O)N[C@H]1CCCNC(=O)[C@H](Cc2ccc(C)cc2)NC(=O)[C@H](Cc2c[nH]c3ccccc23)NC(=O)[C@@H](CC2CCCCC2)NC(=O)[C@@H]2CCCN2C1=O [Compound 36, Ac-Phe-[Orn-Pro-cha-Trp-Pmf]] (Ac-F[Orn]P[dCha]W[Phe(4-Me)]; lactam 2-C)
IC50-value compared to compound 40 (in words) [1]: without a significant increase of the IC50-value
inhibitory activity (in words) [1]: noteworthy inhibitory activity

Molecule: CC(=O)N[C@@H](Cc1ccccc1)C(=O)N[C@H]1CCCNC(=O)[C@H](Cc2ccc3ccccc3c2)NC(=O)[C@H](Cc2c[nH]c3ccccc23)NC(=O)[C@@H](CC2CCCCC2)NC(=O)[C@@H]2CCCN2C1=O [Compound 37, Ac-Phe-[Orn-Pro-cha-Trp-2Ni]] (Ac-F[Orn]P[dCha]W[2Nal]; lactam 2-C)
IC50-value compared to compound 40 (in words) [1]: without a significant increase of the IC50-value
inhibitory activity (in words) [1]: noteworthy inhibitory activity

Molecule: CC(=O)N[C@@H](Cc1ccccc1)C(=O)N[C@H]1CCCNC(=O)[C@H](Cc2cccs2)NC(=O)[C@H](Cc2c[nH]c3ccccc23)NC(=O)[C@@H](CC2CCCCC2)NC(=O)[C@@H]2CCCN2C1=O [Compound 38, Ac-Phe-[Orn-Pro-cha-Trp-Thi]] (Ac-F[Orn]P[dCha]W[2Thi]; lactam 2-C)
IC50-value compared to compound 40 (in words) [1]: without a significant increase of the IC50-value
inhibitory activity (in words) [1]: noteworthy inhibitory activity

Molecule: CC(=O)N[C@@H](C)C(=O)N[C@H]1CCCNC(=O)[C@H](CCCN=C(N)N)NC(=O)[C@H](Cc2c[nH]c3ccccc23)NC(=O)[C@@H](CC2CCCCC2)NC(=O)[C@@H]2CCCN2C1=O [Compound 45] (Ac-A[Orn]P[dCha]WR; lactam 2-C)
IC50 [1]: > 2000 nM

Molecule: NCCC[C@H](NC(=O)[C@H](Cc1ccccc1)N1C(=O)CNC1=O)C(=O)N1CCC[C@H]1C(=O)N[C@H](CC1CCCCC1)C(=O)N[C@@H](Cc1csc2ccccc12)C(=O)N[C@@H](Cc1ccccc1)C(N)=O [Compound 130, (—CO—CH2—NH—CO—)-Phe-Orn-Pro-cha-Bta-Phe-NH2] (X3-[Orn]P[dCha][Bta]F-NH2)
IC50 [1]: 50 to 200 nM

Molecule: NCCC[C@H](NC(=O)[C@H](Cc1ccccc1)N1C(=O)CCC1=O)C(=O)N1CCC[C@H]1C(=O)N[C@H](CC1CCCCC1)C(=O)N[C@@H](Cc1csc2ccccc12)C(=O)N[C@@H](Cc1ccccc1)C(N)=O [Compound 133, (—CO—CH2—CH2—CO—)-Phe-Orn-Pro-cha-Bta-Phe-NH2] (X4-[Orn]P[dCha][Bta]F-NH2)
IC50 [1]: 200 to 2000 nM

B1: Ac-Phe-[Orn-Pro-cha-Trp-Ala] (peptide)
peptide: Ac-F[Orn]P[dCha]WA
modifications: lactam (positions not given here); not fully specified (bridges); printed as Ac-Phe-[Orn-Pro-cha-Trp-Ala]
IC50 activity group, enzyme release assay [2]: > 2000 nM

B3: Ac-Phe-[Orn-Pro-cha-Trp-Cha] (peptide)
peptide: Ac-F[Orn]P[dCha]W[Cha]
modifications: lactam (positions not given here); not fully specified (bridges); printed as Ac-Phe-[Orn-Pro-cha-Trp-Cha]
IC50 activity group, enzyme release assay [2]: ≤ 200 nM

Molecule: FXPXWX (not fully specified; Ac-; Orn2; cha4 (D); Cit6; cyclic [2-6]) [Ac-Phe-[Orn-Pro-cha-Trp-Cit]]
IC50 activity group, enzyme release assay [2]: ≤ 2000 nM

B6: Ac-Phe-[Orn-Pro-cha-Trp-Chg] (peptide)
peptide: Ac-F[Orn]P[dCha]W[Chg]
modifications: lactam (positions not given here); not fully specified (bridges); printed as Ac-Phe-[Orn-Pro-cha-Trp-Chg]
IC50 activity group, enzyme release assay [2]: ≤ 200 nM

B7: Ac-Phe-[Orn-Pro-cha-Trp-Guf] (peptide)
peptide: Ac-F[Orn]P[dCha]W[Phe(4-guanidino)]
modifications: lactam (positions not given here); not fully specified (bridges); printed as Ac-Phe-[Orn-Pro-cha-Trp-Guf]
IC50 activity group, enzyme release assay [2]: ≤ 2000 nM

Molecule: FXPXWR (not fully specified; Ac-; Orn2; cha4 (D); Arg(CH2CH2)6; cyclic [2-6]) [Ac-Phe-[Orn-Pro-cha-Trp-Arg(CH2CH2)]]
IC50 activity group, enzyme release assay [2]: ≤ 2000 nM
